Assay results published in the METLIN SMRT retention time set (Domingo-Almenara et al. 2019).

Test: gradient 5% acetonitrile 3 min, to 50% in 2 min, to 85% in 15 min, held 3 min, 100 µL/min
Details: column: Zorbax Extend-C18 2.1 x 50 mm; eluents: water / acetonitrile, 0.1% formic acid
Procedure, shortened: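 Using water and acetonitrile that each contained 0.1% formic acid, mixtures of ~100 pure standards were separated at 100 μL/min on a Zorbax Extend-C18 column (2.1 × 50 mm, 1.8 μm). The HPLC fed a quadrupole time-of-flight mass spectrometer working in positive and negative ionization mode, with dead and dwell volumes of 40 μL and 900 μL. Data were acquired over 3 months. Retention time was read from computationally picked adduct peaks after manual inspection of each.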

RP-LC retention time [s] | Structure (SMILES)
626 | Cc1cc(C)c2[nH]c3c(c(=O)c2c1)CN(CC(=O)NCc1ccccc1F)CC3
917 | O=C(Nc1ccccc1)C(=O)Nc1ccccc1[N+](=O)[O-]
901 | CCOC(=O)c1cccc(N2C=C(C(=O)N3CCCC3)S(=O)(=O)c3ccc(Cl)cc32)c1
807 | COc1ccc(-c2cc3n(n2)CCCN(C(=O)c2cccn2C)C3)cc1
870 | CCc1noc(NC(C)=O)c1-c1ccc(OC)c(S(=O)(=O)Nc2cc(Cl)ccc2C)c1
843 | Cc1ccc(NC(=O)N2CCC(N3CCN(Cc4ccccc4)C3=O)CC2)c(C)c1
915 | CCOc1ccccc1NC(=O)N1CCN(c2ccc(=O)n(-c3ccc(C)cc3)n2)CC1
670 | CCOC(=O)C1=C(CN(C)Cc2ccccc2)NC(=O)NC1c1ccc(C)cc1 (configuration not stated)
749 | O=C(NCc1ccc(F)cc1)C1CCCN(c2nnc3ccc(Cl)cn23)C1 (configuration not stated)
744 | COc1ccc(-c2nc3ncccn3c2Nc2ccc(C)cc2)cc1
652 | CCc1nc2c(c(=O)n1CC(=O)Nc1cccc(OC)c1)CN(Cc1ccccc1)CC2
952 | COc1ccc(-c2noc(C3CCCN3C(=O)c3ccccc3F)n2)cc1 (configuration not stated)
914 | CCOCCCN1C(=O)c2cc(-c3ccccc3)nn2CC1(C)C(=O)NCc1ccccc1 (configuration not stated)
858 | CC(C)CNC(=O)N1CC(c2nc(-c3ccccc3)no2)C2(CCOCC2)C1 (configuration not stated)
771 | CC1=C(c2ccc(C)c(C)c2)S(=O)(=O)N=C1N1CCCN(C(=O)c2ccccn2)CC1
782 | Cc1nc(N2CCCC2)c2c(C(=O)NCCc3ccc(Cl)cc3)c(C)oc2n1
1010 | CCOC(=O)c1noc2nc(C)nc(Nc3ccccc3)c12
906 | c1ccc(-c2ccc(C(c3ccccc3)n3ccnc3)cc2)cc1 (configuration not stated)
736 | CCOC(=O)N1CCN(S(=O)(=O)c2ccc(C(=O)Nc3cc(C)no3)cc2)CC1
1170 | Cc1ccc(-c2coc(-c3ccc(NC(=O)c4ccco4)cc3)n2)c(C)c1
846 | CCCCS(=O)(=O)N1CCC(n2c(-c3ccc(OC)cc3)nc3cccnc32)C1 (configuration not stated)
771 | COc1cccc(-n2c(N3CCCC(C(=O)NCC4CC4)C3)nc3ccsc3c2=O)c1 (configuration not stated)
753 | COc1cccc(CCC(=O)N2C[C@@H]3C[C@H]2C[C@@H]3NC(=O)c2cccs2)c1
856 | Cn1nc(C(=O)NCc2ccc3c(c2)OCO3)c2c1CCN(C(=O)COc1ccc(Cl)cc1)C2
608 | CC(NC(=O)c1ccccn1)C(=O)Nc1nc2ccccc2[nH]1 (configuration not stated)
770 | CC(C)n1cnc2ccc(-c3noc(COc4ccccc4)n3)cc21

RP-LC retention time [s] | Structure (SMILES)
1080 | COc1ccc(Cl)cc1NC(=O)C1CCCN(S(=O)(=O)c2cc(-c3noc(C)n3)cs2)C1 (configuration not stated)
732 | COCC(=O)N1CCCc2ccc(NC(=O)CSc3ccc(F)cc3)cc21
682 | C=CCN(CC=C)C(=O)Cn1c(C2CC(=O)N(c3ccc(OC)cc3)C2)nc2ccccc21 (configuration not stated)
968 | CC(=O)c1ccc(NC(=O)C(C)Oc2cc(C(F)(F)F)c3c(C)nn(C)c3n2)cc1 (configuration not stated)
958 | O=C(Cc1csc2nc(-c3cccc(Br)c3)cn12)Nc1ccccc1F
887 | O=c1n(Cc2cccc(C(F)(F)F)c2)nc2ccc(-c3ccccc3)nn12
677 | Cc1cccc(-c2ncccc2CNS(=O)(=O)c2cccs2)c1
972 | COc1ccccc1CNC(=O)Cn1c(=O)cc(-c2nc(C(C)C)no2)c2ccccc21
865 | COc1ccc(Cc2nn3c(CSc4ccccc4)nnc3s2)cc1OC
862 | CCOc1ccc(NC(=O)Cn2c(=O)cc(-c3nc(C)no3)c3ccccc32)cc1
643 | COc1ccc(C(=O)Oc2cc(C)nn2-c2nc3ccccc3[nH]2)cc1
625 | CCn1c(CCNC(=O)c2ccc(N(C)C)cc2)nc2cccnc21
806 | CC(C)NC(=O)C1CCCN(c2nccn3nc(-c4ccccc4Cl)cc23)C1 (configuration not stated)
1060 | COc1ccc(-c2nc(-c3ccc4oc(C)nc4c3)no2)cn1
759 | CCC(Oc1ccc(=O)n(-c2ccc(F)cc2)n1)C(=O)NCCc1ccco1 (configuration not stated)
558 | O=C(NCc1ccccn1)C1CCN(c2cc(N3CCCCC3)ncn2)CC1
722 | CCCn1c(CCNC(=O)c2ccc(Cl)cc2)nc2cccnc21
829 | Cc1cc(C)n(-c2ccnc(NCc3ccc(F)cc3)n2)n1
734 | COc1cccc(-c2nnc(NC(=O)c3ccccc3Br)o2)c1
732 | O=C(Nc1nccnc1C(=O)NC1CC1)c1ccccc1
676 | CN(Cc1ccco1)C(=O)c1ccc(-n2cc(CNC(=O)C3CC3)cn2)cc1
1150 | O=C(NCc1ccccc1F)C1CCCN(c2nc3ccccc3n(Cc3ccccc3)c2=O)C1 (configuration not stated)
796 | Cc1cccc(CNC(=O)c2ccc3c(c2)Sc2ncccc2C(=O)N3C)c1
612 | Cc1cc(Cl)ccc1NC(=O)N1CCC2(CC1)c1nccn1CCN2C
839 | CCc1cccc(NC(=O)C2CCc3nc(N4CCOCC4)ncc3C2)c1 (configuration not stated)

Continued, compound first:

Structure (SMILES) | RP-LC retention time [s]
Cc1cc(CN2CCC(CNC(=O)C(=O)NCCC3=CCCCC3)CC2)c(C)o1 | 607
CC(C)c1nncn1C1CCN(S(=O)(=O)c2cccc(F)c2)CC1 | 707
COc1ccc(OC)c(-c2cn3ccn(-c4ccc(F)c(Cl)c4)c(=O)c3n2)c1 | 929
Cc1oc(C2CCN(C(=O)Nc3ccc4c(c3)CCC4)CC2)nc1C(=O)N1CCCC1 | 861
O=C(Nc1ccc(F)cc1F)C1CCN(S(=O)(=O)c2cc(-c3noc(C4CC4)n3)cs2)CC1 | 997
CCOC(=O)c1c(CN2CCCC2)n(C)c2cc(-c3ccncc3)c3c(c12)CN(C)CO3 | 730
COc1cc(-c2noc(Cc3nnc(-c4ccc(C)c(F)c4)o3)n2)cc(OC)c1OC | 996
O=C(CN1CCN(C(=O)c2cnn3c(-c4ccc5c(c4)OCO5)ccnc23)CC1)N1CCCCC1 | 611
COc1ccc(NC(=O)CSc2nc3nc(C)cc(C)n3n2)cc1OC | 652
O=C1CC(C(=O)N2CCOCC2)CN1CCc1c[nH]c2ccc(Cl)cc12 (configuration not stated) | 677
O=C(N[C@@H]1CN(Cc2ccc(Cl)cc2F)CC[C@@H]1CO)C1CC1 | 598
OCCN1CCN(CC(O)COCc2ccc(Cl)cc2)CC1 (configuration not stated) | 530
COc1ccc(C2C(C(=O)N3CCC(C)CC3)c3cc(OC)c(OC)cc3C(=O)N2C)cc1OC (configuration not stated) | 764
CCOc1ccc(S(=O)(=O)N2CCCC(C(=O)Nc3cc(C)ccc3OC)C2)cc1 (configuration not stated) | 1090
Cc1ccc(C)c(NC(=O)Cn2nc3c(N4CCC(C)CC4)nccn3c2=O)c1 | 864
Cc1nnsc1C(=O)N1CCc2nc(NC(=O)C3CC3)sc2C1 | 630
CCc1ccc(NC(=O)C2CCN(S(=O)(=O)c3c(C)[nH]c(C)c3C(=O)N3CCCC3)CC2)cc1 | 729
Cc1ccc(C)c(NC(=O)C(=O)NCC(c2ccc3c(c2)CCCN3C)N2CCOCC2)c1 (configuration not stated) | 601

Structure (SMILES) | RP-LC retention time [s]
CCc1noc(NC(C)=O)c1-c1ccc(C)c(S(=O)(=O)NC2CCCC2)c1 | 808
O=C(NCc1cccs1)C1CCCN(S(=O)(=O)c2cc(-c3noc(C4CCC4)n3)cs2)C1 (configuration not stated) | 1070
O=C(NCc1noc(C2CCCCC2)n1)c1coc(C2CC2)n1 | 889
Cc1nnc(N2CCCC(C(=O)N3CCC4(CC3)OCCO4)C2)c2nn(-c3ccccc3)c(C)c12 (configuration not stated) | 660
CN(C)c1cccc(C(=O)NCC2(O)CCCC2)c1 | 569
CCCN1CC(Oc2ccc(-c3noc(C4CC4)n3)cc2)C1 | 653
Cc1cc(=O)n(CC(=O)Nc2ccc3c(c2)OCO3)c(N2CCCCC2)n1 | 666
CCn1c(=O)c2ccn(CC(=O)N3CCN(Cc4ccc5c(c4)OCO5)CC3)c2n(CC)c1=O | 591
COc1cc(NC(=O)N2CCCC(C)(C(=O)NCc3ccc(C)cc3)C2)cc(OC)c1OC (configuration not stated) | 811
CC(C)c1ccc(CNC(=O)[C@@]23CCCC[C@H]2N(C)C(=O)CC3)cc1 | 786
O=c1n(Cc2c(F)cccc2Cl)nc2ccc(S(=O)(=O)N3CCCCCC3)cn12 | 996
COc1ccc(-c2noc(N3CCC(C(=O)NC4CC4)CC3)n2)cc1OC | 690
O=C(Cn1c2ccccc2c2ncn(Cc3nc(C4CC4)no3)c(=O)c21)NC1CCCCC1 | 834
CN1CCCn2cc(S(=O)(=O)Nc3ccc(Cl)cc3F)cc2C1=O | 727
CC1CCCN(CCCNC(=O)CN2C(=O)CCc3cc(S(=O)(=O)N4CCCCC4)ccc32)C1 (configuration not stated) | 638
CN(CCc1noc(C2CN(Cc3c(F)cccc3Cl)C2)n1)S(C)(=O)=O | 594
CCn1cc(S(=O)(=O)N2[C@H]3CC[C@@H]2c2cnc(-c4ccc(F)cc4)nc2C3)cn1 | 900
Cc1ccc(S(=O)(=O)N(C)CC2CCOCC2)c(C)c1 | 896
